Patent US20070207223A1, “Means for improving cardiovascular health” (priority 2006, published 2007)
Entries after “also recorded” stand apart in the source; their conditions may differ.

How the values were obtained:
[1] = regular dietary intake; cited from earlier work
[2] = Heart tissue omega-3 fatty acid content, dietary study in beagle dogs; format: in vivo
Protocol: (§1) The test article, SDA, was administered in the diet once daily, 7 days per week, for up to 90 days to three groups (Groups 1-3) of male beagle dogs. The reference article, eicosapentaenoic acid (EPA), was administered to Group 4 on the same dosing regimen. Both SDA and EPA were supplied as ethyl esters. The control article, food grade high oleic sunflower oil (SFO), was administered to Group 5 on the same dosing regimen. SFO was also added to food of groups 1 through 4 so that all animals received a similar volume of oil per kg body wt. A dietary supplement, vitamin E, was added to all diets. Dosage levels were 21.4, 64.2 and 192.9 mg/kg/day SDA, 42.9 mg/kg/day EPA and were calculated for each animal based on body weight for Groups 1, 2, 3 and 4, respectively. Each group consisted of 15 males. Five animals/group were scheduled for each interim necropsy (study weeks 4 and 8) and the primary necropsy at the end of the 12-week treatment period. In addition, five animals were euthanized prior to randomization and test article administration to establish baseline levels of fatty acids (pretest necropsy).
(§2) The animals were observed twice daily for mortality and moribundity. Clinical examinations were performed daily, and detailed physical examinations were performed weekly. Individual body weights were recorded weekly. Food consumption was recorded daily and reported weekly. Blood samples for analysis of fatty acids were collected from five dogs scheduled for the pretest necropsy and from all surviving dogs during study weeks 2, 4, 8 and 12. All animals were euthanized, and in addition to liver and kidney sections, two samples of heart tissue were collected, one set was analyzed for fatty acid analysis and the other sample was retained for microscopic analysis at the scheduled necropsies. Sections from the heart, liver and kidney were examined microscopically from five animals during pretest and from 5 animals/group (Groups 3-5 only) at the study week 12 necropsy.
(§3) Tissue preparation, lipid extraction and analysis were conducted according to a conventional protocol. Briefly, heart tissues were first lyophilized overnight, and then pulverized by grinding between two ground glass slides. The ground tissue was suspended in saline and subjected to 10-15 seconds of sonication. Lipids were extracted with methanol and methylene chloride, and the solvent evaporated under nitrogen. Thawed RBCs were extracted with isopropanol and hexane. After centrifugation of the stroma, the solvent was transferred and evaporated under nitrogen. Phospholipids extracted from heart and RBC samples were methylated with BF3, at 100° C. for 10 minutes. These conditions transmethylate glycerophospholipid FAs but not sphingolipid FAs. After heating, all samples were extracted with hexane and water. The hexane layer was removed, dried under nitrogen, and the FA methyl esters reconstituted in hexane for analysis by flame ionization gas chromatography. FAs were identified by comparison with known standards, and FA compositions were reported as weight percent of total FA.
Animals were euthanized by an intravenous injection of sodium pentobarbital followed by exsanguinations. Two samples of approximately 200 mg of heart tissue from the left ventricle were collected, rinsed in chilled saline, wrapped in aluminum foil, flash frozen in liquid nitrogen, and stored at approximately −70° C. The samples were analyzed for pathologic abnormalities.

[3] = RBC omega-3 fatty acid content, dietary study in beagle dogs; format: in vivo
Protocol: as §1, §2
Blood samples were collected from the 5 dogs selected for the pretest necropsy and from all surviving dogs at study weeks 2, 4, 8 and 12. The samples were collected from the dog's jugular vein into tubes containing EDTA prior to the feeding/dosing regimen. The red blood cells (RBC) were separated from the plasma by centrifugation at 1500× for approximately 20 minutes at 4° C. The plasma was transferred to polypropylene tubes and stored at approximately −70° C. for future analysis. The buffy coat was removed from the packed RBCs, and the RBCs were divided approximately equally into two tubes.
as §3

[4] = dog, in vivo
Protocol: as §1, with “Five animals/group were scheduled for each interim necropsy (study weeks 4 and 8) and the primary necropsy at the end of the 12-week treatment period. In addition, five animals were euthanized prior to randomization and test article administration to establish baseline levels of fatty acids (pretest necropsy).” left out
The animals were observed twice daily for mortality and moribundity. […] Individual body weights were recorded weekly. Food consumption was recorded daily and reported weekly. […] All animals were euthanized, and in addition to liver and kidney sections, two samples of heart tissue were collected, one set was analyzed for fatty acid analysis and the other sample was retained for microscopic analysis at the scheduled necropsies. […]
Animals were euthanized by an intravenous injection of sodium pentobarbital followed by exsanguinations. […] The samples were analyzed for pathologic abnormalities. […]

[5] = dietary supplementation, human diet; phospholipid fractions; cited from earlier work

Structure (SMILES): CC/C=C\C/C=C\C/C=C\CCCCCCCC(=O)O [ALA, α-linolenic acid]
- Tissue concentrations of EPA and DHA [1]: proven ineffective in raising the tissue concentrations of EPA and DHA

Structure (SMILES): CC/C=C\C/C=C\C/C=C\C/C=C\C/C=C\CCCC(=O)O [EPA, eicosapentaenoic acid, reference compound]
- Heart tissue omega-3 fatty acid content relative to sunflower oil-treated dogs (negative control) ([2]; 42.9 mg/kg/day EPA in diet, between study weeks 4 and 12): 3-5 fold
- RBC omega-3 fatty acid content relative to SFO-treated dogs (negative control) ([3]; 42.9 mg/kg/day EPA in diet, between study weeks 2 and 12): 3-10 fold

Structure (SMILES): CC/C=C\C/C=C\C/C=C\C/C=C\CCCCC(=O)O [SDA, Stearidonic acid]
- Heart omega-3 fatty acid content over pretreatment levels ([2]; 21.4 mg/kg/day SDA, study week 4): negligible increase
- Heart omega-3 fatty acid content, peak over pretreatment levels ([2]; 21.4 mg/kg/day SDA, study week 8): approximately 1.5 fold
- Heart omega-3 fatty acid content over pretreatment levels ([2]; 192.9 mg/kg/day SDA, study week 12): approximately 3 fold
- Omega-3 fatty acid content in the heart tissue ([2]; SDA 21.4, 64.2 and 192.9 mg/kg/day in diet, study weeks 4, 8 and 12): increased in a dose-dependent manner
- Conversion into EPA and DPA and incorporation into cardiac and red blood cell membranes ([2]; SDA via the diet daily for 12 consecutive weeks, male beagle dogs): effectively converted into EPA and DPA
- Microscopic changes to heart, liver and kidney tissues [4]: did not cause any significant microscopic changes
- Microscopic findings (heart, liver, kidney) [4]: no microscopic findings attributed to test article administration
- Concentrations of EPA and DPA in erythrocytes and plasma [5]: increase the concentrations of EPA and DPA; also recorded: effectively converted into EPA and DPA
- Total omega-3 fatty acid content (RBC) over pretreatment levels ([3]; 21.4 mg/kg/day SDA, as early as study week 2): overall increase
- Time of peak of total omega-3 fatty acid content (RBC) ([3]; 21.4 mg/kg/day SDA, decreasing thereafter): approximately 4 weeks
- Total omega-3 fatty acid content (RBC) over pretreatment ([3]; 192.9 mg/kg/day SDA (Group 3), elevated from study week 2 through 12 weeks): approximately 2 fold
- Overall increase in omega-3 fatty acid content (RBC) over time compared with the EPA group ([3]; 192.9 mg/kg/day SDA vs 42.9 mg/kg/day EPA, slightly lower): comparable to the increase seen in the 42.9 mg/kg/day EPA group
- Omega-3 fatty acid content in red blood cells (RBC) ([3]; SDA 21.4, 64.2 and 192.9 mg/kg/day in diet, study weeks 2, 4, 8 and 12): increased in a dose-dependent manner
